# Patent US20060263802A1 (priority 2003, published 2006)
# What was measured:
# Format in all cases: binding
# [1] = tested on: human monoclonal antibody CR57
# [2] = tested on: human monoclonal antibody CRJB
# [3] = tested on: human monoclonal antibody CRJB; remark: listed apart in the source
# [4] = tested on: human monoclonal antibody CRJA
# [5] = tested on: human monoclonal antibody CRJA; remark: listed apart in the source
# [6] = tested on: human monoclonal antibody CR57; remark: listed apart in the source
Sequence,Binding of CR57 to linear peptide (PEPSCAN-ELISA signal) [1],Binding of CRJB (10 μg/ml) to looped/cyclic peptide (PEPSCAN-ELISA signal) [2],Binding of CRJB to linear peptide (PEPSCAN-ELISA signal) [3],Binding of CRJA to linear peptide (PEPSCAN-ELISA signal) [4],Binding of CRJA (10 μg/ml) to looped/cyclic peptide (PEPSCAN-ELISA signal) [5],Binding of CR57 (10 μg/ml) to looped/cyclic peptide (PEPSCAN-ELISA signal) [6],Binding of CRJB (10 μg/ml) to looped/cyclic peptide (PEPSCAN-ELISA) [2],Binding of CRJA (10 μg/ml) to looped/cyclic peptide (PEPSCAN-ELISA) [5],Binding of CR57 (10 μg/ml) to looped/cyclic peptide (PEPSCAN-ELISA) [6],Binding of human monoclonal antibody CR57 to linear peptide (PEPSCAN-ELISA signal) [1],Binding of CRJB to looped/cyclic peptide (PEPSCAN-ELISA signal) [2],Binding of human monoclonal antibody CRJB to linear peptide (PEPSCAN-ELISA signal) [3],Binding of human monoclonal antibody CRJA to linear peptide (PEPSCAN-ELISA signal) [4],Binding of CRJA to looped/cyclic peptide (PEPSCAN-ELISA signal) [5],Binding of CR57 to looped/cyclic peptide (PEPSCAN-ELISA signal) [6],binding of antibody CR57 to linear peptide (PEPSCAN OD) [1],strength of binding of CR57 (OD value compared with the other peptides / twice the average value) [1]
FPSGKCSGVAVSSTY,64,74,134,93,80,90,,,,,,,,,,,
FRPTPDACRAAYNWK,43,88,112,104,125,90,,,,,,,,,,,
FRRLSHLRKLVPGFG,90,,108,106,,,54,111,128,,,,,,,,
FRSDEIEHLVVEELV,86,,114,101,,,79,94,132,,,,,,,,
FSYMELKVGYILAIK,89,72,112,120,96,104,,,,,,,,,,,
FTCTGVVTEAENYTN,83,96,125,91,96,123,,,,,,,,,,,
FTNSRGKRASKGSET,83,82,111,90,88,89,,,,,,,,,,,
FVDERGLYKSLKGAC,86,,121,116,,,79,92,97,,,,,,,,
FVEVHLPDVHNQVSG,,,,,,,,,,92,101,143,93,103,150,,
FVGYVTTTFKRKHFR,70,82,111,79,102,117,,,,,,,,,,,
GACKLKLCGVLGLRL,123,,134,64,,,79,54,73,,,,,,,bound,lower than twice the average value
GCLRVGGRCHPHVNG,85,,125,98,,,112,105,103,,,,,,,,
GCTNLSGFSYMELKV,55,55,114,72,55,63,,,,,,,,,,,
GDEAEDFVEVHLPDV,,,,,,,,,,46,87,124,93,82,87,,
GDPRYEESLHNPYPD,36,82,98,96,90,64,,,,,,,,,,,
GFGKAYTIFNKTLME,78,,123,98,,,83,86,94,,,,,,,,
GFSYMELKVGYILAI,65,57,111,91,71,77,,,,,,,,,,,
GFTCTGVVTEAENYT,71,68,86,90,87,94,,,,,,,,,,,
GFVDERGLYKSLKGA,84,,120,104,,,86,87,107,,,,,,,,
GGRCHPHVNGVFFNG,86,,119,110,,,110,107,134,,,,,,,,
GIILGPDGNVLIPEM,107,,132,107,,,93,92,108,,,,,,,,
GKAYTIFNKTLMEAD,76,,127,100,,,100,107,114,,,,,,,,
GKCSGVAVSSTYCST,92,74,143,103,97,79,,,,,,,,,,,
GKRASKGSETCGFVD,92,,124,97,,,71,93,82,,,,,,,,
GLRLMDGTWVAMQTS,104,,138,108,,,99,100,120,,,,,,,,
GLYKSLKGACKLKLC,94,,129,91,,,97,100,86,,,,,,,,
GMSCDIFTNSRGKRA,54,78,120,71,51,79,,,,,,,,,,,
GNVLIPEMQSSLLQQ,96,,120,85,,,103,78,99,,,,,,,,
GPDGNVLIPEMQSSL,86,,154,91,,,100,112,141,,,,,,,,
